Data: patent US10448639B2, “Fungicidal pyrazoles” (FMC CORPORATION, priority 2009, dated 2019)

Columns and labels:
[1] = system: Puccinia recondita f. sp. tritici; experiment: Test I: wheat leaf rust, preventive spray on wheat seedlings, visual disease rating; details: wheat leaf rust, preventive; 100 = 100% disease control, 0 = no control relative to controls
Botrytis cinerea = experiment: Test B: tomato Botrytis, preventive spray on tomato seedlings, visual disease rating; details: tomato Botrytis; 100 = 100% disease control, 0 = no control relative to controls
Septoria tritici = experiment: Test G: wheat leaf blotch, preventive spray on wheat seedlings, visual disease rating; details: wheat leaf blotch; 100 = 100% disease control, 0 = no control relative to controls
Alternaria solani = experiment: Test C: tomato early blight, preventive spray on tomato seedlings, visual disease rating; details: tomato early blight; 100 = 100% disease control, 0 = no control relative to controls
[2] = system: Erysiphe graminis f sp. tritici; experiment: Test J: wheat powdery mildew, preventive spray on wheat seedlings, visual disease rating; details: wheat powdery mildew; 100 = 100% disease control, 0 = no control relative to controls
Septoria nodorum = experiment: Test F: Septoria glume blotch, preventive spray on wheat seedlings, visual disease rating; details: Septoria glume blotch; 100 = 100% disease control, 0 = no control relative to controls
[3] = system: Puccinia recondita f. sp. tritici; experiment: Test H: wheat leaf rust, curative spray on inoculated wheat seedlings, visual disease rating; details: wheat leaf rust, curative; 100 = 100% disease control, 0 = no control relative to controls

SMILES | Test I rating (% disease control) [1] | Test B rating (% disease control) (Botrytis cinerea) | Test G rating (% disease control) (Septoria tritici) | Test C rating (% disease control) (Alternaria solani) | Test J rating (% disease control) [2] | Test F rating (% disease control) (Septoria nodorum) | Test H rating (% disease control) [3]
COc1cc(F)c(-c2c(C)nn(C)c2Oc2ccc(Br)c(F)c2)c(F)c1 [compound 153] | 96% | 100% | 100% | 0% | 98% | 73% | 0%
Cc1nn(C)c(Nc2ncc(F)cc2F)c1-c1ccc(F)cc1Cl [compound 154] | 100% | 99% | 100% | 99% | 100% | 97% | 41%
COc1ccc(-c2c(C)nn(C)c2Oc2c(F)cc(C#N)cc2F)c(Cl)c1 [compound 155] | 100% | 100% | 100% | 99% | 99% | 100% | 92%
Cc1nn(C)c(Oc2ccc([N+](=O)[O-])c(C#N)c2)c1-c1c(F)cc(F)cc1F [compound 156] | 41% | 94% | 73% | 0% | 47% | 0% | 0%
Cc1cc(Oc2c(-c3c(F)cc(F)cc3F)c(C)nn2C)ccc1Cl [compound 157] | 54% | 0% | 0% | 0% | 73% | 0% | 0%
CCN(c1c(F)cc(OC)cc1F)c1c(-c2ccc(F)cc2Cl)c(C)nn1C [compound 158] | 99% | 100% | 99% | 0% | 98% | 0% | 18%
C=CCN(c1c(F)cc(OC)cc1F)c1c(-c2ccc(F)cc2Cl)c(C)nn1C [compound 159] | 99% | 99% | 100% | 0% | 100% | 0% | 74%
COc1ccc(-c2c(C)nn(C)c2Nc2ccc(F)cc2F)c(Cl)c1 [compound 160] | 100% | 98% | 99% | 99% | 100% | 0% | 8%
COc1ccc(-c2c(C)nn(C)c2Nc2c(F)cccc2F)c(Cl)c1 [compound 161] | 100% | 98% | 100% | 100% | 98% | 0% | 95%
Cc1nn(C)c(Nc2ccc(C#N)cc2Cl)c1-c1ccc(F)cc1Cl [compound 162] | 98% | 99% | 99% | 0% | 94% | 0% | 8%
Cc1nn(C)c(Oc2cc(C#N)c(C#N)cc2Cl)c1-c1c(F)cc(F)cc1F [compound 163] | 88% | 0% | 83% | 9% | 0% | 0% | 0%
COc1cc(Oc2c(-c3c(F)cc(F)cc3F)c(C)nn2C)ccc1Cl [compound 164] | 9% | 49% | 99% | 57% | 97% | 0% | 15%
Cc1cc(Oc2c(-c3c(F)cc(F)cc3F)c(C)nn2C)ccc1Br [compound 165] | 0% | 0% | 52% | 0% | 99% | 0% | 8%
COc1cc(Oc2c(-c3c(F)cc(F)cc3F)c(C)nn2C)ccc1Br [compound 166] | 68% | 0% | 97% | 0% | 96% | 0% | 0%
Cc1nn(C)c(Oc2cc(F)cc(F)c2F)c1-c1c(F)cc(F)cc1F [compound 167] | 0% | 75% | 0% | 0% | 0% | 0% | 0%
Cc1nn(C)c(Oc2ccc(C#N)c(C#N)c2)c1-c1ccc(F)cc1Cl [compound 168] | 0% | 14% | 33% | 0% | 0% | 0% | 0%
Cc1nn(C)c(Oc2ccc(C#N)c(C#N)c2)c1-c1c(F)cc(F)cc1F [compound 169] | 0% | 24% | 85% | 0% | 0% | 0% | 0%
Cc1nn(C)c(Oc2c(F)cc(C#N)cc2F)c1-c1ccc(F)cc1F [compound 170] | 100% | 100% | 98% | 99% | 99% | 99% | 0%
Cc1nn(C)c(Nc2c(F)ccc(F)c2F)c1-c1ccc(F)cc1Cl [compound 171] | 99% | 100% | 97% | 97% | 100% | 0% | 68%
Cc1nn(C)c(Nc2cc(F)ccc2F)c1-c1ccc(F)cc1Cl [compound 173] | 83% | 100% | 98% | 86% | 100% | 0% | 0%
